Data on five compounds can be found in PMC4095797 (Proteins, 2013).

Molecules are shown by their SMILES.

Holding throughout (assay type): binding
Test [1] addresses T1, RPD1520 (Rhodopseudomonas pseudopalustris, UniProt A0A1H8UI63). Description: fluorescence thermal shift. As to conditions: 10 μM protein, 1000 μM ligand; HEPES pH 7.5.
Test [2] concerns the target RPD1889 (Rhodopseudomonas palustris, UniProt Q139W5). Put plainly: fluorescence thermal shift. As to conditions: 10 μM protein, 1000 μM ligand; HEPES pH 7.5; pre-bound ligand present.
Test [3] has as its target BLR7848 (Bradyrhizobium diazoefficiens, UniProt Q89CE9). Put plainly: fluorescence thermal shift. Conditions: 10 μM protein, 1000 μM ligand; HEPES pH 7.5.
The target of test [4] is RPA1789 (Rhodopseudomonas palustris, UniProt Q6N8W4). Put plainly: X-ray crystal structure. As to conditions: co-crystallisation; SeMet protein; 1.60 Å.
For test [5], the target named is RPB3575 (Rhodopseudomonas palustris, UniProt Q2IU40). Put plainly: X-ray crystal structure. As to conditions: co-crystallisation; SeMet protein; 1.70 Å.
Test [6] addresses T1, RPD1520. Put plainly: intrinsic tryptophan fluorescence quenching. Conditions: excitation 275 nm; single-site fit; unit of KD printed as M^-1 (M meant).

For the compound `O=C(O)CCc1ccccc1` [hydrocinnamic acid], the dTm result in test [1] was “large Tm shifts when phenylacetic acid or hydrocinnamic acid were included”.

For `O=C(O)/C=C/c1ccc(O)cc1` [COU, p-coumaric acid], the dTm entry in test [2] was “(p- coumaric acid, caffeic acid) produce the maximal observed thermal shifts”; in test [3] it was “(p- coumaric acid, caffeic acid) produce the maximal observed thermal shifts”. Besides, the X-ray crystal structure entry in test [4] was “Structures for RPA1789 and RPB3575 proteins in complex with p-coumaric acid (COU, 4-hydroxycinammic acid)”; in test [5], “The structure of RPB3575 with p-coumaric acid (COU)”.

Consider `O=C(O)Cc1ccccc1` [PAA, phenylacetic acid], for which the dTm result in test [1] is on record as “large Tm shifts when phenylacetic acid or hydrocinnamic acid were included”.

On to `O=C(O)C(=O)c1ccccc1` [BZF, benzoylformic acid], for which the KD in test [6] is listed as 1.50 × 10^-4 ± 0.11 M^-1.

As to `O=C(O)/C=C/c1ccc(O)c(O)c1` [CAF, caffeic acid], the dTm result in test [2] is recorded as “(p- coumaric acid, caffeic acid) produce the maximal observed thermal shifts”; in test [3], “(p- coumaric acid, caffeic acid) produce the maximal observed thermal shifts”.
